Test results published in patent publication US20120184514A1, “VITAMIN D COMPOUNDS AND METHODS FOR PREPARING SAME” (Vitamin Derivatives Inc., priority 2009, published 2012).

Assay: Thermogravimetric analysis of a 1α-hydroxy-vitamin D3 sample
Assay type: physicochemical
Conditions: heated under nitrogen at 10 °C/min
Description: Thermogravimetric analysis of a 1α-hydroxy-vitamin D3 sample was performed using a TA Instruments 2950 thermogravimetric analyzer (available from TA Instruments of New Castle, Del.). The sample was placed in an aluminum sample pan and inserted into the thermogravimetric furnace. The furnace was heated under nitrogen at a rate of 10 ° C./min, from room temperature to a final temperature of 350° C. Nickel and Alumel™ (available from Hoskins Manufacturing Company, Novi, Mich.) were used as calibration standards. […] (See FIG. 6).

C=C1/C(=C\C=C2/CCC[C@]3(C)[C@@H]([C@H](C)CCCC(C)C)CC[C@@H]23)C[C@@H](O)C[C@@H]1O [1α-hydroxy-vitamin D3, 1α, 3β,5Z,7E-9,10-secocholesta-5,7,10(19)-triene-1,3-diol]
weight loss (thermogravimetric thermogram) (from 25° C. to 150° C.): 0.09% | decomposition temperature (thermogravimetric thermogram) (room temperature to 350° C.): > 200 °C
